Experimental data taken from paper PMC10384010, “Chromatographic Data in Statistical Analysis of BBB Permeability Indices” (Membranes, 2023).

What was measured:
[1] = plasma protein binding, given as fraction; ref Drugbank; cited from earlier work
[2] = HPLC on IAM (immobilized artificial membrane) column, retention factor; format: physicochemical; conditions: IAM.PC.DD.2 column; for k(IAM) retention factor: 10 mM phosphate buffer pH 7.4:acetonitrile 80:20; for logkIAM: logarithm of retention factor, phosphate buffer pH 7.4:acetonitrile 80:20
[3] = Normal-phase TLC on silica gel 60 F254 (Rf); format: physicochemical; conditions: water:methanol:acetonitrile 60:20:20, ammonium acetate pH 7.4
[4] = Reversed-phase TLC on RP-2 silanized plates (Rf); format: physicochemical; conditions: silica gel 60 RP-2 F254 silanized; water:methanol:acetonitrile 60:20:20, ammonium acetate pH 7.4

Compound	PB (protein binding) [1]	k(IAM) retention factor [2]	logkIAM [2]	NP (Rf from NP TLC plate) [3]	RP (Rf from RP-2 TLC plate) [4]
CCCC(=O)Nc1ccc(OCC(O)CNC(C)C)c(C(C)=O)c1 (stereo not shown) [acebutolol]	0.26				
O=C(O)COC(=O)Cc1ccccc1Nc1c(Cl)cccc1Cl [aceclofenac]	0.99	2.63	0.42	0.89	
CC(=O)Nc1nnc(S(N)(=O)=O)s1 [acetazolamid]	0.98				0.97
Nc1nc2c(ncn2COCCO)c(=O)[nH]1 [aciclovir]	0.21	0.09	-1.04		0.99
Oc1ncnc2[nH]ncc12 [allopurinnol]				0.89	0.97
Cc1nnc2n1-c1ccc(Cl)cc1C(c1ccccc1)=NC2 [alprazolam]	0.8	3.14	0.50		
CCCCc1oc2ccccc2c1C(=O)c1cc(I)c(OCCN(CC)CC)c(I)c1 [amiodarone]					0.33
CCOC(=O)C1=C(COCCN)NC(C)=C(C(=O)OC)C1c1ccccc1Cl (stereo not shown) [amlodipine]		98.90	2.00		0.61
CC(C)NCC(O)COc1ccc(CC(N)=O)cc1 (stereo not shown) [atenolol]				0.34	0.58
CC(C)c1c(C(=O)Nc2ccccc2)c(-c2ccccc2)c(-c2ccc(F)cc2)n1CC[C@@H](O)C[C@@H](O)CC(=O)O [atorvastatin]					0.8
CC(C)NCC(O)COc1ccc(CCOCC2CC2)cc1 (stereo not shown) [betaxolol]	0.5			0.66	0.27
O=C1CC2(CCCC2)CC(=O)N1CCCCN1CCN(c2ncccn2)CC1 [buspirone]		7.00	0.84	0.57	
Cn1c(=O)c2c(ncn2C)n(C)c1=O [caffeine]		0.18	-0.75	0.82	
C[C@H](CS)C(=O)N1CCC[C@H]1C(=O)O [captopril]		0.01	-2.19	0.77	
O=C(N[C@H](CO)[C@H](O)c1ccc([N+](=O)[O-])cc1)C(Cl)Cl [chloramphenikol]		1.08	0.03	0.99	0.89
CCN(CC)CCCC(C)Nc1ccnc2cc(Cl)ccc12 (stereo not shown) [chloroquine]	0.55				
O=C(O)c1cn(C2CC2)c2cc(N3CCNCC3)c(F)cc2c1=O [ciprofloxacin]				0.11	0.38
CN(C)CCCC1(c2ccc(F)cc2)OCc2cc(C#N)ccc21 (stereo not shown) [citalopram]	0.8				
CN(C)CCCN1c2ccccc2CCc2ccc(Cl)cc21 [clomipramine]				0.33	
Clc1ccc2c(c1)CCc1cccnc1C2=C1CCNCC1 [desloratidine]		50.45	1.70		

Compound	PB (protein binding) [1]	k(IAM) retention factor [2]	logkIAM [2]	NP (Rf from NP TLC plate) [3]	RP (Rf from RP-2 TLC plate) [4]
C[C@H]1O[C@@H](O[C@H]2[C@@H](O)C[C@H](O[C@H]3[C@@H](O)C[C@H](O[C@H]4CC[C@@]5(C)[C@H](CC[C@@H]6[C@@H]5C[C@@H](O)[C@]5(C)[C@@H](C7=CC(=O)OC7)CC[C@]65O)C4)O[C@@H]3C)O[C@@H]2C)C[C@H](O)[C@@H]1O [digoxin]		3.69	0.57		
COc1cc2nc(N3CCN(C(=O)C4COc5ccccc5O4)CC3)nc(N)c2cc1OC (stereo not shown) [doxazosin]		0.22	-0.66		0.75
CN(C)CCC[C@@]1(c2ccc(F)cc2)OCc2cc(C#N)ccc21 [escitalopram]	0.56	32.08	1.51		
NC(N)=Nc1nc(CSCCC(N)=NS(N)(=O)=O)cs1 [famotidine]				0.7	0.98
OC(Cn1cncn1)(Cn1cncn1)c1ccc(F)cc1F [fluconazole]				0.87	0.9
COCCCC/C(=N\OCCN)c1ccc(C(F)(F)F)cc1 [fluvoxamine]				0.34	
CC(=O)OCC(=O)[C@@]1(O)CC[C@H]2[C@@H]3CCC4=CC(=O)CC[C@]4(C)[C@H]3[C@@H](O)C[C@@]21C [hydrocortisone acetate]	0.95	2.82	0.45	0.96	
CC(C)Cc1ccc(C(C)C(=O)O)cc1 (stereo not shown) [ibuprofen]		0.86	-0.07		
CC(C(=O)O)c1cccc(C(=O)c2ccccc2)c1 (stereo not shown) [ketoprofen]		0.20	-0.71		
O=C(O)COCCN1CCN([C@H](c2ccccc2)c2ccc(Cl)cc2)CC1 [levocetrizine]			0.58	0.63	
CN(C)C(=O)C(CCN1CCC(O)(c2ccc(Cl)cc2)CC1)(c1ccccc1)c1ccccc1 [loperamide]				0.68	0.75
Cc1cnc(NC(=O)C2=C(O)c3ccccc3S(=O)(=O)N2C)s1 [meloxicam]		0.49	-0.31	0.99	
COC(=O)c1ccc(O)cc1 [methyl paraben]		1.94	0.29	0.97	0.85
CCN(CC)CCNC(=O)c1cc(Cl)c(N)cc1OC [metoclopramide]		6.16	0.79		
Nc1cc(N2CCCCC2)nc(N)[n+]1[O-] [minoxidil]				0.43	
CC(C)(O)c1ccccc1CC[C@@H](SCC1(CC(=O)O)CC1)c1cccc(/C=C/c2ccc3ccc(Cl)cc3n2)c1 [montelukast]		99.10	2.00		
COc1ccc2cc([C@H](C)C(=O)O)ccc2c1 [naproxen]				0.92	0.88
CC1COc2c(N3CCN(C)CC3)c(F)cc3c(=O)c(C(=O)O)cn1c23 (stereo not shown) [ofloxacin]	0.32			0.24	
Cc1cc2c(s1)Nc1ccccc1N=C2N1CCN(C)CC1 [olanzapine]		20.31	1.31		
O=C1Nc2ccc(Cl)cc2C(c2ccccc2)=NC1O (stereo not shown) [oxazepam]		4.78	0.68	0.93	0.83

Compound	PB (protein binding) [1]	k(IAM) retention factor [2]	logkIAM [2]	NP (Rf from NP TLC plate) [3]	RP (Rf from RP-2 TLC plate) [4]
CCN(CC)CC#CCOC(=O)C(O)(c1ccccc1)C1CCCCC1 (stereo not shown) [oxybutinin]		49.68	1.70	0.68	0.29
CC(C)NCC(O)COc1cccc2[nH]ccc12 (stereo not shown) [pindolol]	0.4	6.09	0.78	0.53	
CCC1(c2ccccc2)C(=O)NCNC1=O [primidone]				0.9	0.93
CCCNCC(O)COc1ccccc1C(=O)CCc1ccccc1 (stereo not shown) [propafenone]				0.57	0.56
CC(C)NCC(O)COc1cccc2ccccc12 (stereo not shown) [propranolol]		28.09	1.45	0.54	
CCCc1cc(=O)[nH]c(=S)[nH]1 [propylthiouracil]	0.82				
CN[C@@H](C)[C@@H](O)c1ccccc1 [pseudoephedrine]		2.21	0.34		
CC(N)C12CC3CC(CC(C3)C1)C2 (stereo not shown) [rimantadine]				0.92	0.95
Cc1nc2n(c(=O)c1CCN1CCC(c3noc4cc(F)ccc34)CC1)CCCC2 [risperidone]		4.83	0.68		
CC(C)c1nc(N(C)S(C)(=O)=O)nc(-c2ccc(F)cc2)c1/C=C/[C@@H](O)C[C@@H](O)CC(=O)O [rosuvastatin]		0.96	-0.02	0.9	0.92
CCC(C)(C)C(=O)O[C@H]1C[C@@H](C)C=C2C=C[C@H](C)[C@H](CC[C@@H]3C[C@@H](O)CC(=O)O3)[C@H]21 [simvastatin]				0.19	0.66
CN1C(=O)C(O)N=C(c2ccccc2)c2cc(Cl)ccc21 (stereo not shown) [temazepam]		6.74	0.83		
Cn1c(=O)c2[nH]cnc2n(C)c1=O [theophylline]		0.12	-0.94		
CCS(=O)(=O)CCn1c([N+](=O)[O-])cnc1C [tinidazole]	0.12			0.89	
Cc1ccc(O)c([C@H](CCN(C(C)C)C(C)C)c2ccccc2)c1 [tolterodine]		0.21	-0.68		
COc1cccc(C2(O)CCCCC2CN(C)C)c1 (stereo not shown) [tramadol]	0.2				
CCCCC(=O)N(Cc1ccc(-c2ccccc2-c2nnn[nH]2)cc1)[C@H](C(=O)O)C(C)C [valsartan]	0.955	0.08	-1.10		
Cc1ccc(-c2nc3ccc(C)cn3c2CC(=O)N(C)C)cc1 [zolpidem]		2.60	0.42		
PABA		0.01	-1.88		
gentamycin				0.96	0.911
